How the values were obtained:
Assay type in all cases: cell-based
Settings in all cases: 24 hours of compound treatment, 50 nM and 500 nM tested (concentration behind the class not stated)
IKZF1 = target: T1, IKZF1 (Homo sapiens, UniProt Q13422+Q96SW2); test: Western-blot assay of substrate protein degradation in hPBMCs, IKZF1
T1 construct: endogenous in cells; host or cells: hPBMCs (Milecell Biotechnologies)

GSPT1 = target: T2, GSPT1 (Homo sapiens, UniProt P15170+Q96SW2); test: Western-blot assay of substrate protein degradation in hPBMCs, GSPT1
T2 construct: endogenous in cells; host or cells: hPBMCs (Milecell Biotechnologies)
T2 sequence (P15170 whole entry): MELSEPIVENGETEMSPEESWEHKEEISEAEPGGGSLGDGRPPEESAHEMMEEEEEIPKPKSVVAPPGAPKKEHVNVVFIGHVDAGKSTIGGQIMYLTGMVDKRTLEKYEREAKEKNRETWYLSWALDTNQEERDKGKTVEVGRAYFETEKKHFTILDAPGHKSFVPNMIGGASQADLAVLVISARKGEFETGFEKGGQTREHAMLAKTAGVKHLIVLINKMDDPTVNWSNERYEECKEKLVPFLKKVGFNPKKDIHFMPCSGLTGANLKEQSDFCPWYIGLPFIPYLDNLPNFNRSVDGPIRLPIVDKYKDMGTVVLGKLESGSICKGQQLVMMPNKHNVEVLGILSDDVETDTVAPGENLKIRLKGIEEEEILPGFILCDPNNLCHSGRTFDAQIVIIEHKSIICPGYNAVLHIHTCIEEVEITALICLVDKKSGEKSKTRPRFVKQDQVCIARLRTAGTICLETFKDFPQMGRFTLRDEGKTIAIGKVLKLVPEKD
T2 sequence (Q96SW2 whole entry): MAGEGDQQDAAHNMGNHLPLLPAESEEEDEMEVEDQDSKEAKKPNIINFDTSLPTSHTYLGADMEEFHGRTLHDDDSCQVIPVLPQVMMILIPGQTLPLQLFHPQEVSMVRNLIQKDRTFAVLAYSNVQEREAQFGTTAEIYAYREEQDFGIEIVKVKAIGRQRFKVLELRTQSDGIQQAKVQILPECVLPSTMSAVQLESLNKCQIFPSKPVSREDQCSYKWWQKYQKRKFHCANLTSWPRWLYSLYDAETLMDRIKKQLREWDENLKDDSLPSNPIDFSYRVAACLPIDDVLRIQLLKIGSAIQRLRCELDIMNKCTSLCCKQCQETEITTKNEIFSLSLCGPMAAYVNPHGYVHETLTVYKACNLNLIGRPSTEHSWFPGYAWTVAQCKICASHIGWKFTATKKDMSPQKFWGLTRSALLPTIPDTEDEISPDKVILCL
T2 sequence (Q16531 whole entry partner): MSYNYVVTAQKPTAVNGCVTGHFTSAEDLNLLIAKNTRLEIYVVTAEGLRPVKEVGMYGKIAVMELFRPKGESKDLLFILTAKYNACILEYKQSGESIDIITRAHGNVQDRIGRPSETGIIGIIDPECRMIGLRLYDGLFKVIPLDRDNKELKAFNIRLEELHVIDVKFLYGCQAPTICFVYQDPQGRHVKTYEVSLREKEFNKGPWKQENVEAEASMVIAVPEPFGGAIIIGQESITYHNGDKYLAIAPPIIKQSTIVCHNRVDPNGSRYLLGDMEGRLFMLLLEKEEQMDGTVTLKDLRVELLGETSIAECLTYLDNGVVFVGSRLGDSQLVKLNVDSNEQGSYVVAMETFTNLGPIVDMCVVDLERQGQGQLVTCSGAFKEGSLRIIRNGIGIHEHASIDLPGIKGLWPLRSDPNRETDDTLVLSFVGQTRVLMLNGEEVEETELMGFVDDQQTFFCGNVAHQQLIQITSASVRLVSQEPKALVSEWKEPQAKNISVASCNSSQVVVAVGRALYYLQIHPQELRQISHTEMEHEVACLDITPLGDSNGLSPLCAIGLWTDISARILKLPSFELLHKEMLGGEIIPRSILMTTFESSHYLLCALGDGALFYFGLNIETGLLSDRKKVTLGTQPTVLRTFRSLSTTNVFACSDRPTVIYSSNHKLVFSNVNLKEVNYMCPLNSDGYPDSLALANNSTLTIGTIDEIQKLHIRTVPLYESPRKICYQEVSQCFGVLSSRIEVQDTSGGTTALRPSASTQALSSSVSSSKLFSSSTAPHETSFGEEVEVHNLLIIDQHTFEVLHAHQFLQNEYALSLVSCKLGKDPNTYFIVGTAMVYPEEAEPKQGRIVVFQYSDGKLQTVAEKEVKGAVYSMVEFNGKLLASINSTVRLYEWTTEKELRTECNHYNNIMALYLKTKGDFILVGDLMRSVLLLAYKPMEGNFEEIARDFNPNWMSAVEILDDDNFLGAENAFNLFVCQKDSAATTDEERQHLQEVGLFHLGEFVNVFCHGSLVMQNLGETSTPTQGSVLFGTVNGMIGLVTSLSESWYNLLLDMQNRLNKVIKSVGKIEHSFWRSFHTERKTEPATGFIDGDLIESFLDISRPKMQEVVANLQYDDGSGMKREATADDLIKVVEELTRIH

IKZF2 = target: T3, IKZF2 (Homo sapiens, UniProt Q96SW2+Q9UKS7); test: Western-blot assay of substrate protein degradation in hPBMCs, IKZF2
T3 construct: endogenous in cells; host or cells: hPBMCs (Milecell Biotechnologies)
T3 sequence (Q9UKS7 whole entry): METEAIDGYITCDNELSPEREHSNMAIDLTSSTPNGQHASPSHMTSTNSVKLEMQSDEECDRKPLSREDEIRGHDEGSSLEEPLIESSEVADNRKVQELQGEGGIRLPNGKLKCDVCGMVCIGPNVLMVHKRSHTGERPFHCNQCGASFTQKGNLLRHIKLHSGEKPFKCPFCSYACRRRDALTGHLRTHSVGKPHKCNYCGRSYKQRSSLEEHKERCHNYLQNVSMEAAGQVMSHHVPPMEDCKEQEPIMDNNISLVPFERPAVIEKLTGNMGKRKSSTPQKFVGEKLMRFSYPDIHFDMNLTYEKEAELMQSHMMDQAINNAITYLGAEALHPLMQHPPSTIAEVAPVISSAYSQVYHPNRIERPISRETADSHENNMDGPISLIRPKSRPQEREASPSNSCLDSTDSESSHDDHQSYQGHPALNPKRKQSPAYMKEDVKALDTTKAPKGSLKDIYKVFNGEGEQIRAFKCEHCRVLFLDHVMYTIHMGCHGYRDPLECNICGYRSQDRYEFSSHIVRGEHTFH
T3 sequence (Q96SW2 whole entry): as the sequence (Q96SW2 whole entry) above
T3 sequence (Q16531 whole entry partner): as the sequence (Q16531 whole entry partner) above

WEE1 = target: T4, WEE1 (Homo sapiens, UniProt P30291+Q96SW2); test: Western-blot assay of substrate protein degradation in hPBMCs, WEE1
T4 construct: endogenous in cells; host or cells: hPBMCs (Milecell Biotechnologies)
T4 sequence (P30291 whole entry): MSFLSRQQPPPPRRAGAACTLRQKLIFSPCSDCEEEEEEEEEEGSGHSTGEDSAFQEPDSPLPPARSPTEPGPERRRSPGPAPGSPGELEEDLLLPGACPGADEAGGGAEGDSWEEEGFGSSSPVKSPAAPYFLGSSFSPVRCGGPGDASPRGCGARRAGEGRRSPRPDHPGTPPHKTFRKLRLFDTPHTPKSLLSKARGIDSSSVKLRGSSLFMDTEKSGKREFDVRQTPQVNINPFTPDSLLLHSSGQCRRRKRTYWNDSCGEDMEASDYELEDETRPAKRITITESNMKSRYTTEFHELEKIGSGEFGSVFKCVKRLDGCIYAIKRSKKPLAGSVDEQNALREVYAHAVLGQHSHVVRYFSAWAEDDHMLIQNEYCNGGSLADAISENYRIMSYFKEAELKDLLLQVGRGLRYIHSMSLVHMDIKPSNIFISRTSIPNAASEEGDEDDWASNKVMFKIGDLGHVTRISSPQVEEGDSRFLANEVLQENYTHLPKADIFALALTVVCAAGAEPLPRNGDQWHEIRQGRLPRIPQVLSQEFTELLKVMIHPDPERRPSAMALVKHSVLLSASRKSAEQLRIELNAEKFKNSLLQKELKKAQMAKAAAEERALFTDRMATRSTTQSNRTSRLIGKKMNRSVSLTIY
T4 sequence (Q96SW2 whole entry): as the sequence (Q96SW2 whole entry) above
T4 sequence (Q16531 whole entry partner): as the sequence (Q16531 whole entry partner) above

CK1α = target: T5, CK1α (Homo sapiens, UniProt P48729+Q96SW2); test: Western-blot assay of substrate protein degradation in hPBMCs, CK1α
T5 construct: endogenous in cells; host or cells: hPBMCs (Milecell Biotechnologies)

IKZF3 = target: T6, IKZF3 (Homo sapiens, UniProt Q96SW2+Q9UKT9); test: Western-blot assay of substrate protein degradation in hPBMCs, IKZF3
T6 construct: endogenous in cells; host or cells: hPBMCs (Milecell Biotechnologies)
T6 sequence (Q9UKT9 whole entry): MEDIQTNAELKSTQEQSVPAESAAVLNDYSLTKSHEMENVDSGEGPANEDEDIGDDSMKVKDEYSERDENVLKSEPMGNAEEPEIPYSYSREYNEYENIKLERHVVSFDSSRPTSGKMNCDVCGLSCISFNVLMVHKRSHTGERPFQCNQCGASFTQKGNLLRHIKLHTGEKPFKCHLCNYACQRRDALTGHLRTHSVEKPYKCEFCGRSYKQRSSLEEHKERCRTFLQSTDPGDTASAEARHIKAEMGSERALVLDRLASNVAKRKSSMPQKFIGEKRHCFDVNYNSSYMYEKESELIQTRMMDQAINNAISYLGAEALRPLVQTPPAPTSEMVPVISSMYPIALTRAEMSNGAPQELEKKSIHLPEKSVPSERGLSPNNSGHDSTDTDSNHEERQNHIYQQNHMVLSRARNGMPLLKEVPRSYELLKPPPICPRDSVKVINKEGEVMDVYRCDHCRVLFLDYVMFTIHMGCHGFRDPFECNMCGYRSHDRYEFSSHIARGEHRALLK
T6 sequence (Q96SW2 whole entry): as the sequence (Q96SW2 whole entry) above
T6 sequence (Q16531 whole entry partner): as the sequence (Q16531 whole entry partner) above

T1 sequence (Q13422 whole entry): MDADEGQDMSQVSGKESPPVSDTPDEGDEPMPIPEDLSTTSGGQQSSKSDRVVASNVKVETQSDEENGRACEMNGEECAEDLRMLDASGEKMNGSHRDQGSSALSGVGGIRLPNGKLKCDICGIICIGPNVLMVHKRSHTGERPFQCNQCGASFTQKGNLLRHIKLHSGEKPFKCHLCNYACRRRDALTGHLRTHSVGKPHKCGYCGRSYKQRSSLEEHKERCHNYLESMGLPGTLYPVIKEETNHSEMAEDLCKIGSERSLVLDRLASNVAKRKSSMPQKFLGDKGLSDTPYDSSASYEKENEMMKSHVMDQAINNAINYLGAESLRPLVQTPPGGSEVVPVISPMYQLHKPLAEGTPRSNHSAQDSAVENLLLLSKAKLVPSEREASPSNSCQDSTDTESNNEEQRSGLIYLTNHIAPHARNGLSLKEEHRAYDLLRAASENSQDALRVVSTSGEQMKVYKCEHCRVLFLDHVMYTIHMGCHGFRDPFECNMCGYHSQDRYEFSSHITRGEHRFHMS
T1 sequence (Q96SW2 whole entry): as the sequence (Q96SW2 whole entry) above
T1 sequence (Q16531 whole entry partner): as the sequence (Q16531 whole entry partner) above

Row | Structure (SMILES) | IKZF 1 substrate protein remaining % (IKZF1) | GSPT1 substrate protein remaining % (GSPT1) | IKZF2 substrate protein remaining % (IKZF2) | Weel substrate protein remaining % (WEE1) | CK1a substrate protein remaining % (CK1α) | IKZF3 substrate protein remaining % (IKZF3)
1 | O=C1CCC(N2C(=O)c3ccc(CN4CCN(c5ccc(F)cn5)CC4)cc3C2=O)C(=O)N1 (stereo not drawn) [GT-06528, 2-(2,6-dioxopiperidin-3-yl)-5-((4-(5-fluoropyridin-2-yl)piperazin-1-yl)methyl)isoindoline-1,3-dione] | B (80%< substrate protein remaining %≤ 100%) | A (0% ≤ substrate protein remaining % ≤ 80%) | A (0% ≤ substrate protein remaining % ≤ 80%) | A (0% ≤ substrate protein remaining % ≤ 80%) | B (80%< substrate protein remaining %≤ 100%) | A (0% ≤ substrate protein remaining % ≤ 80%)
2 | O=C1CCC(N2C(=O)c3ccc(CN4CCN(c5ncccc5C(F)(F)F)CC4)cc3C2=O)C(=O)N1 (stereo not drawn) [GT-06529, 2-(2,6-dioxopiperidin-3-yl)-5-((4-(3-(trifluoromethyl)pyridin-2-yl)piperazin-1-yl)methyl)isoindoline-1,3-dione] | B (80%< substrate protein remaining %≤ 100%) | A (0% ≤ substrate protein remaining % ≤ 80%) | A (0% ≤ substrate protein remaining % ≤ 80%) | A (0% ≤ substrate protein remaining % ≤ 80%) | B (80%< substrate protein remaining %≤ 100%) | A (0% ≤ substrate protein remaining % ≤ 80%)
3 | O=C1CCC(N2C(=O)c3ccc(CN4CCN(c5cccc(C(F)(F)F)n5)CC4)cc3C2=O)C(=O)N1 (stereo not drawn) [GT-06530, 2-(2,6-dioxopiperidin-3-yl)-5-((4-(6-(trifluoromethyl)pyridin-2-yl)piperazin-1-yl)methyl)isoindoline-1,3-dione] | B (80%< substrate protein remaining %≤ 100%) | A (0% ≤ substrate protein remaining % ≤ 80%) | B (80%< substrate protein remaining %≤ 100%) | B (80%< substrate protein remaining %≤ 100%) | B (80%< substrate protein remaining %≤ 100%) | B (80%< substrate protein remaining %≤ 100%)
4 | O=C1CCC(N2C(=O)c3ccc(CN4CCN(c5ccc(C(F)(F)F)cn5)CC4)cc3C2=O)C(=O)N1 (stereo not drawn) [GT-06531, 2-(2,6-dioxopiperidin-3-yl)-5-((4-(5-(trifluoromethyl)pyridin-2-yl)piperazin-1-yl)methyl)isoindoline-1,3-dione] | B (80%< substrate protein remaining %≤ 100%) | A (0% ≤ substrate protein remaining % ≤ 80%) | B (80%< substrate protein remaining %≤ 100%) | B (80%< substrate protein remaining %≤ 100%) | B (80%< substrate protein remaining %≤ 100%) | B (80%< substrate protein remaining %≤ 100%)
5 | O=C1CCC(N2C(=O)c3ccc(CN4CCN(c5ncc(Cl)cc5Cl)CC4)cc3C2=O)C(=O)N1 (stereo not drawn) [GT-06532, 5-((4-(3,5-dichloropyridin-2-yl)piperazin-1-yl)methyl)-2-(2,6-dioxopiperidin-3-yl)isoindoline-1,3-dione] | B (80%< substrate protein remaining %≤ 100%) | A (0% ≤ substrate protein remaining % ≤ 80%) | B (80%< substrate protein remaining %≤ 100%) | B (80%< substrate protein remaining %≤ 100%) | B (80%< substrate protein remaining %≤ 100%) | B (80%< substrate protein remaining %≤ 100%)
6 | O=C1CCC(N2C(=O)c3ccc(CN4CCN(c5nccc(I)c5F)CC4)cc3C2=O)C(=O)N1 (stereo not drawn) [GT-06533, 2-(2,6-dioxopiperidin-3-yl)-5-((4-(3-fluoro-4-iodopyridin-2-yl)piperazin-1-yl)methyl)isoindoline-1,3-dione] | B (80%< substrate protein remaining %≤ 100%) | A (0% ≤ substrate protein remaining % ≤ 80%) | B (80%< substrate protein remaining %≤ 100%) | B (80%< substrate protein remaining %≤ 100%) | B (80%< substrate protein remaining %≤ 100%) | B (80%< substrate protein remaining %≤ 100%)
7 | O=C1CCC(N2C(=O)c3ccc(CN4CCN(c5ccnc(Cl)c5Cl)CC4)cc3C2=O)C(=O)N1 (stereo not drawn) [GT-06534, 5-((4-(2,3-dichloropyridin-4-yl)piperazin-1-yl)methyl)-2-(2,6-dioxopiperidin-3-yl)isoindoline-1,3-dione] | B (80%< substrate protein remaining %≤ 100%) | A (0% ≤ substrate protein remaining % ≤ 80%) | B (80%< substrate protein remaining %≤ 100%) | B (80%< substrate protein remaining %≤ 100%) | B (80%< substrate protein remaining %≤ 100%) | B (80%< substrate protein remaining %≤ 100%)
8 | O=C1CCC(N2C(=O)c3ccc(CN4CCN(c5ccnc(F)c5F)CC4)cc3C2=O)C(=O)N1 (stereo not drawn) [GT-06535, 5-((4-(2,3-difluoropyridin-4-yl)piperazin-1-yl)methyl)-2-(2,6-dioxopiperidin-3-yl)isoindoline-1,3-dione] | B (80%< substrate protein remaining %≤ 100%) | B (80%< substrate protein remaining %≤ 100%) | A (0% ≤ substrate protein remaining % ≤ 80%) | B (80%< substrate protein remaining %≤ 100%) | B (80%< substrate protein remaining %≤ 100%) | A (0% ≤ substrate protein remaining % ≤ 80%)
9 | O=C1CCC(N2C(=O)c3ccc(CN4CCN(c5c(Cl)ccnc5Cl)CC4)cc3C2=O)C(=O)N1 (stereo not drawn) [GT-06552, 5-((4-(2,4-dichloropyridin-3-yl)piperazin-1-yl)methyl)-2-(2,6-dioxopiperidin-3-yl)isoindoline-1,3-dione] | B (80%< substrate protein remaining %≤ 100%) | A (0% ≤ substrate protein remaining % ≤ 80%) | A (0% ≤ substrate protein remaining % ≤ 80%) | B (80%< substrate protein remaining %≤ 100%) | B (80%< substrate protein remaining %≤ 100%) | B (80%< substrate protein remaining %≤ 100%)
10 | O=C1CCC(N2C(=O)c3ccc(CN4CCN(c5ccncc5)CC4)cc3C2=O)C(=O)N1 (stereo not drawn) [GT-06553, 2-(2,6-dioxopiperidin-3-yl)-5-((4-(pyridin-4-yl)piperazin-1-yl)methyl)isoindoline-1,3-dione] | B (80%< substrate protein remaining %≤ 100%) | A (0% ≤ substrate protein remaining % ≤ 80%) | A (0% ≤ substrate protein remaining % ≤ 80%) | B (80%< substrate protein remaining %≤ 100%) | B (80%< substrate protein remaining %≤ 100%) | B (80%< substrate protein remaining %≤ 100%)
11 | Cc1cc(N2CCN(Cc3ccc4c(c3)C(=O)N(C3CCC(=O)NC3=O)C4=O)CC2)ccn1 (stereo not drawn) [GT-06554, 2-(2,6-dioxopiperidin-3-yl)-5-((4-(2-methylpyridin-4-yl)piperazin-1-yl)methyl)isoindoline-1,3-dione] | B (80%< substrate protein remaining %≤ 100%) | A (0% ≤ substrate protein remaining % ≤ 80%) | A (0% ≤ substrate protein remaining % ≤ 80%) | B (80%< substrate protein remaining %≤ 100%) | B (80%< substrate protein remaining %≤ 100%) | B (80%< substrate protein remaining %≤ 100%)
12 | O=C1CCC(N2C(=O)c3ccc(CN4CCN(c5nccc(F)c5F)CC4)cc3C2=O)C(=O)N1 (stereo not drawn) [GT-06555, 5-((4-(3,4-difluoropyridin-2-yl)piperazin-1-yl)methyl)-2-(2,6-dioxopiperidin-3-yl)isoindoline-1,3-dione] | B (80%< substrate protein remaining %≤ 100%) | A (0% ≤ substrate protein remaining % ≤ 80%) | A (0% ≤ substrate protein remaining % ≤ 80%) | B (80%< substrate protein remaining %≤ 100%) | B (80%< substrate protein remaining %≤ 100%) | B (80%< substrate protein remaining %≤ 100%)
13 | O=C1CCC(N2C(=O)c3ccc(CN4CCN(c5ccncc5Br)CC4)cc3C2=O)C(=O)N1 (stereo not drawn) [GT-06556, 5-((4-(3-bromopyridin-4-yl)piperazin-1-yl)methyl)-2-(2,6-dioxopiperidin-3-yl)isoindoline-1,3-dione] | B (80%< substrate protein remaining %≤ 100%) | A (0% ≤ substrate protein remaining % ≤ 80%) | A (0% ≤ substrate protein remaining % ≤ 80%) | B (80%< substrate protein remaining %≤ 100%) | B (80%< substrate protein remaining %≤ 100%) | B (80%< substrate protein remaining %≤ 100%)

From patent publication EP4745137A1 (Gluetacs Therapeutics (Shanghai) Co., Ltd., priority 2023, dated 2025)
